Tests used:
[1] = test system: stomach pacemaker potentials; assay: MEA recording of pacemaker potentials (slow waves), isolated stomach; format: cell-based, Suncus murinus
Method: (§1) Pacemaker potentials were recorded extracellularly on a 60-channel MEA system using full-thickness GI segments isolated from Suncus murinus. Basic slow-wave parameters, including frequency, amplitude, slope, period, and power partitions, were derived. Signal regularity was also evaluated using detrended fluctuation analysis and sample entropy analysis.
(§2) Electrical recordings were taken after the animals were euthanised by carbon dioxide asphyxiation. […] The mesentery was removed, and the lumen contents were flushed with Krebs' medium. Segments (−1 cm) of duodenum, ileum, and colon were then isolated, but the stomach was kept intact. All tissue segments and the entire stomach were incubated in Krebs' medium containing nifedipine (1 μM; Sigma Aldrich, St Louis, MO, USA) for 15 min to inhibit smooth muscle activity. Pacemaker potentials were recorded using an MEA platform (MEA1060 1200×; Multichannel Systems, Reutlingen, Germany) as previously described. Briefly, tissues were placed onto the electrode field of an MEA chip (60-channel, 8×8 configuration, 3D-tip-shaped electrodes with a height of […] and an inter-electrode distance of 200 μm; Ayanda Biosystems SA, Lausanne, Switzerland). Intestinal segments were aligned horizontally to the recording electrode field, while the stomach was oriented with the antrum facing the recording electrode field. The chamber temperature was maintained at 37° C. and the sampling frequency was 1 kHz. […] All data were recorded and saved using MC_Rack (v 4.6.2, Multichannel Systems).
(§3) Data analysis included basic slow-wave feature extraction using a custom automated program. […] The time point of drug administration was automatically identified based on the signal disturbance. The period of signal disturbance (20 s before and 40 s after the peak of the disturbance) was excluded from the analysis. Data were filtered using a passband between 0.1 Hz and 1 Hz and a stopband between 0.01 Hz and 2 Hz. The basic slow-wave features extracted were similar to those extracted in the inventors' previous studies. However, instead of using several templates and scripts written in Microsoft Excel and Spike 2, a one-step automatic and blinded MATLAB programme was used for data analysis. There were four major changes to the data analysis process as compared to the inventors' previous studies. First, auto-identification of the drug disturbance time point was used, rather than manual identification. Second, standardised signal filters were built in MATLAB to match the entire data analysis pipeline. […] Frequency partitioning was performed by segmenting the power spectrum of 0-50 cpm into the following four segments: brady-rhythm (within the range 2-[DF−1] cpm), normal-rhythm ([DF±1] cpm), tachy-rhythm (within the range [DF+1]-40 cpm), and out-of-range frequencies (<2 cpm and >40 cpm). Third, waveforms were identified using the MATLAB ‘findpeaks’ function, with a minimum peak height of […] at baseline and […] after drug treatment, with a step time of 5.4 s for the intestine and 12 s for the stomach. The average peak-to-peak amplitude, slope, and period were derived for all detected waveforms. Fourth, propagation velocity was derived using phase-difference measurements, based on the auto-select seed electrode with the highest percentage of normal rhythms.
(§4) Dominant activation pattern identification included a phase-based analysis performed as previously described (Liu et al., 2021). Briefly, high-frequency spikes with amplitudes greater than […] were masked. Continuous frequencies were identified using continuous wavelet transformation, and the transformed data were used to plot spectrograms. […] High quality data were subjected to Hilbert transformation to identify the phase and frequency of the signals. Individual activation times were clustered using k-means clustering every 20 s and major activation patterns were grouped using a structural similarity index.

[2] = test system: colon pacemaker potentials; assay: MEA recording of pacemaker potentials (slow waves), isolated colon; format: cell-based, Suncus murinus; settings: colonic tissues
Method: as §1, §2, §3, §4

For Cl.NCCc1ccc(O)c(O)c1 [dopamine, 3-Hydroxytyramine hydrochloride], the “representative spectrogram, effect” value ([1]; 100 μM) was “reduced the DP of the DF”, the “wave fronts counted in representative spatio-temporal map (1 min)” value ([1]; 100 μM, 9 before treatment) was ~10 and the “DFA fluctuation function (smaller scale 3-25)” value ([1]; 100 μM, baseline 2.36±0.08, p<0.05, n=7) was 2.27±0.16. The “number of groups of activation patterns” value ([1]; 100 μM, baseline 4.3±1.0, p<0.05, n=8) was 5.3±1.0, the “average frequency (AF)” value ([1]; 100 μM, baseline 9.8±1.2, p<0.05, n=8) was 11.8±1.8 cpm and the percentage of tachy-rhythms ([1]; 100 μM, baseline 36.1±12.8, p<0.05, n=8) was 60.2±15.4%. The “percentage of normal rhythms” value ([1]; 100 μM, baseline 55.1±7.2, p<0.01, n=8) was 23.6±13.1%, the “dominant power (DP) of slow waves” value ([1]; 100 μM, baseline 888.0±691.5, p<0.05, n=8) was 253.2±416.1 μV^2 and the “percentage of dominant patterns (based on post-treatment data, FIG. 3E), change vs baseline” value ([1]; 100 μM, p>0.05, n=4) was “No significant differences”. For the same compound, the “percentage of dominant baseline activation patterns, change vs baseline” value ([1]; 100 μM, p>0.05, n=4, FIG. 3D) was “No significant differences”, the “average SampEn (larger scale 6-50), effect” value ([1]; 100 uM, p>0.05, n=7) was “did not change” and the “average SampEn (smaller scale 1-5), effect” value ([1]; 100 uM, p>0.05, n=7) was “did not change”. For the same compound, the “DFA fluctuation function (larger scale 26-46), effect” value ([1]; 100 μM, p>0.05, n=7) was “did not change”, the “amplitude of slow waves, change vs baseline” value ([1]; 100 μM, p>0.05, n=8) was “No significant differences” and the “dominant frequency (DF), change vs baseline” value ([1]; 100 μM, p>0.05, n=8) was “No significant differences”. The “propagation velocities, effect” value ([1]; 100 μM, p>0.05, n=8) was “did not affect”, the “slope of waveforms, change vs baseline” value ([1]; 100 μM, p>0.05, n=8) was “No significant differences” and the “waveform period, change vs baseline” value ([1]; 100 μM, p>0.05, n=8) was “No significant differences”. For the same compound, the “wave propagation in video (FIG. 11B), effect” value ([1]; 100 M) was “wave propagation was inhibited, and amplitudes were reduced”, the “average SampEn (larger scale 6-50)” value ([2]; 100 nM, baseline 0.33±0.06, p<0.01, n=6) was 0.28±0.07 and the “average SampEn (smaller scale 1-5)” value ([2]; 100 nM, baseline 0.59±0.03, p<0.01, n=6) was 0.62±0.03. The “DFA fluctuation function (larger scale 26-46)” value ([2]; 100 nM, baseline 1.80±0.09, p<0.001, n=6) was 1.58±0.11, the “DFA fluctuation function (smaller scale 3-25)” value ([2]; 100 nM, baseline 2.37±0.07, p<0.01, n=6) was 2.26±0.06 and the “average frequency (AF)” value ([2]; 100 nM, baseline 23.9±2.4, p<0.05, n=7) was 23.3±1.6 cpm. The “DFA fluctuation function (smaller scale 3-25)” value ([2]; 1 μM, baseline 2.30±0.33, p<0.05, n=8) was 2.23±0.34, the “number of groups of activation patterns” value ([2]; 1 μM, baseline 5.4±1.0, p<0.05, n=6) was 6.4±1.1 and the percentage of tachy-rhythms ([2]; 1 μM, baseline 18.3±12.6, p<0.05, n=6) was 55.5±34.8%. The “percentage of dominant patterns (based on post-treatment data, FIG. 3E), first pattern” value ([2]; 1 μM, baseline 19.1±12.2, p<0.05, n=6) was 39.6±15.6%, the “percentage of normal rhythms” value ([2]; 1 μM, baseline 41.4±9.7, p<0.01, n=6) was 14.5±18.1% and the “propagation direction and speed in video (FIGS. 12A-12B)” value ([2]; 10 μM) was “relatively constant”. For the same compound, the “representative spectrogram, effect” value ([2]; 10 μM) was “extra peaks appeared to the right of the original DF”, the “wave fronts counted in representative spatio-temporal map (1 min)” value ([2]; 10 μM, 32 before treatment) was 32 and the “average SampEn (smaller scale 1-5)” value ([2]; 10 μM, baseline 0.57±0.06, p<0.05, n=6) was 0.60±0.04. For the same compound, the “DFA fluctuation function (smaller scale 3-25)” value ([2]; 10 μM, baseline 2.24±0.23, p<0.05, n=6) was 2.11±0.27, the “number of groups of activation patterns” value ([2]; 10 μM, baseline 6±0.7, p<0.05, n=9) was 6.8±1.1 and the “percentage of normal rhythms” value ([2]; 10 μM, baseline 42.4±6.9, p<0.05, n=9) was 13.1±17.4%. The “DFA fluctuation function (larger scale 26-46)” value ([2]; 100 μM, baseline 1.63±0.19, p<0.05, n=10) was 1.46±0.21, the “DFA fluctuation function (smaller scale 3-25)” value ([2]; 100 μM, baseline 2.31±0.12) was 2.19±0.13 and the “percentage of dominant patterns (based on post-treatment data, FIG. 3E), third pattern” value ([2]; 100 μM, baseline 20.3±10.8, p<0.0001, n=5) was 7.5±5.8%. For the same compound, the “percentage of dominant baseline activation patterns, first pattern” value ([2]; 100 μM, baseline 34.4±3.7, p<0.01, n=4) was 11.4±12.9%, the percentage of brady-rhythms ([2]; 100 μM, baseline 34.7±9.1, p<0.05, n=6) was 53.9±26.8% and the “percentage of normal rhythms” value ([2]; 100 μM, baseline 53.1±8.1, p<0.05, n=6) was 33.4±23.3%. For the same compound, the “amplitude of slow waves” value ([2]; 100 μM, baseline 267.3±80.9, p<0.01, n=6) was 199.7±48.8 μV, the slope of waveforms ([2]; 100 μM, baseline 439.3±124.3, p<0.001, n=6) was 299.0±76.5 μV s^−1 and the “dominant frequency (DF), change vs baseline” value ([2]; 0.1-100 μM, p>0.05, n=6-9) was “No significant differences”. The “dominant power (DP), change vs baseline” value ([2]; 0.1-100 μM, p>0.05, n=6-9) was “No significant differences”, the “propagation velocities, effect” value ([2]; 0.1-100 μM, p>0.05, n=6-9) was “did not affect” and the “waveform period, change vs baseline” value ([2]; 0.1-100 μM, p>0.05, n=6-9) was “No significant differences”. The “average SampEn (smaller scale 1-5)” value ([2]; 1 M, baseline 0.57±0.06, p<0.01, n=8) was 0.59±0.05, the “DFA fluctuation function (larger scale 26-46)” value ([2]; 1 M, baseline 1.74±0.26, p<0.01, n=8) was 1.61±0.29 and the “DFA fluctuation function (larger scale 26-46)” value ([2]; 10 M, baseline 1.73±0.16, p<0.05, n=6) was 1.53±0.19.
